Measured values taken from PMC4730117, “In vitro Biochemical Characterization of All Barley Endosperm Starch Synthases” (Frontiers in Plant Science, 2016).

Key:
CBM53-3 = molecular target: T1, CBM53-3 (Hordeum vulgare, UniProt G1FUP7); experiment: glycan microarray on nitrocellulose, anti-His detection; details: protein 30 μg/mL in PBS with 5% milk powder; printed oligosaccharide; strong binding
T1 construct: third CBM53 domain of HvSSIIIa only, C-terminal His-tag, vector pET151, E. coli; borders only in supplement

HvSSIV = molecular target: T2, HvSSIV (Hordeum vulgare, UniProt F2CUZ5); experiment: as above; details: protein 30 μg/mL in PBS with 5% milk powder; printed oligosaccharide; strong binding
T2 construct: without predicted chloroplast transit peptide, C-terminal His-tag, codon-optimised, E. coli
T2 sequence (F2CUZ5 49-914): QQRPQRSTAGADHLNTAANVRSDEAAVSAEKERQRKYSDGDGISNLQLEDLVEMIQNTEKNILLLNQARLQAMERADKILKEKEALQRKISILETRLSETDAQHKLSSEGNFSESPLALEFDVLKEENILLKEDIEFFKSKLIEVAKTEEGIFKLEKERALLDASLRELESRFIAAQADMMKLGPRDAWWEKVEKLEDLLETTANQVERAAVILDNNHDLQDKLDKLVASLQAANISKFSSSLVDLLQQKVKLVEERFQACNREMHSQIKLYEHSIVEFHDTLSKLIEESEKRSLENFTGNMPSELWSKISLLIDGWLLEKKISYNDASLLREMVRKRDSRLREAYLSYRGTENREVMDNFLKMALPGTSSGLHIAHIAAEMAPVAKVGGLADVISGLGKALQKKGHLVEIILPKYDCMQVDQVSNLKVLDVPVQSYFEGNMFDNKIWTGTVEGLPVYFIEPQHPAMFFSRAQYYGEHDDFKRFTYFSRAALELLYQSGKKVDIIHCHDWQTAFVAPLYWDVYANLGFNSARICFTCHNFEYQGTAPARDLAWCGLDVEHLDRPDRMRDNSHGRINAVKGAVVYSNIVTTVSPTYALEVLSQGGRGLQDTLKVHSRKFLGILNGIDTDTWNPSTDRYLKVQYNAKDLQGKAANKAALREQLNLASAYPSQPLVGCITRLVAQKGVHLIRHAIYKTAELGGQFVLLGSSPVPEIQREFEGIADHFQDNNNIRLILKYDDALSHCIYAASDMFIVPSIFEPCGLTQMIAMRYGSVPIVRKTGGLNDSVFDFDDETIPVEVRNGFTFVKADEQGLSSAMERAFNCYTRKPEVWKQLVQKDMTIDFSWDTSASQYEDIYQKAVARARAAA

HvSSIIa = molecular target: T3, HvSSIIa (Hordeum vulgare, UniProt Q8H1Y8); experiment: as above; details: protein 30 μg/mL in PBS with 5% milk powder; printed oligosaccharide; strong binding
T3 construct: without predicted chloroplast transit peptide, N-terminal His-tag, codon-optimised, E. coli
T3 sequence (Q8H1Y8 61-802): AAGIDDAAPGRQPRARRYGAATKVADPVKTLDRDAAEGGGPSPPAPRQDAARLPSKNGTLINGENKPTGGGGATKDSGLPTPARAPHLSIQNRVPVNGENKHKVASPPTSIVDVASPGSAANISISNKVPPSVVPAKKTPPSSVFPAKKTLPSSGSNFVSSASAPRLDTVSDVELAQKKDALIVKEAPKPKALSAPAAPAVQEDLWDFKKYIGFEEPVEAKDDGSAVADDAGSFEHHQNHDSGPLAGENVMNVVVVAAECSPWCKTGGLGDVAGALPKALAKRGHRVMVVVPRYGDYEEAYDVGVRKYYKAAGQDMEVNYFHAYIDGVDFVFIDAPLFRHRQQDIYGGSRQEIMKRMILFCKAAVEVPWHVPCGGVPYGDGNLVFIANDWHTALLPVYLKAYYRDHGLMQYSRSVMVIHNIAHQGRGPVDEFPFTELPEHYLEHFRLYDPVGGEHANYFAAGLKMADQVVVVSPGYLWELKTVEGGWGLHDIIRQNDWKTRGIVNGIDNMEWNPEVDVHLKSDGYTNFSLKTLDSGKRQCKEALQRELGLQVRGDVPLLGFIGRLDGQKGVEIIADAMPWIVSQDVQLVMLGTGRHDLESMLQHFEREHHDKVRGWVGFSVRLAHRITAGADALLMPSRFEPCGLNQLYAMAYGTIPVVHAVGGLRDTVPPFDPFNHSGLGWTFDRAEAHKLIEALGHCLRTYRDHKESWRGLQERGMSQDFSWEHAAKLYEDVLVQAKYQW

HvGBSSI = molecular target: T4, HvGBSSI (Hordeum vulgare, UniProt P09842); experiment: as above; details: protein 30 μg/mL in PBS with 5% milk powder; printed oligosaccharide; weaker binding
T4 construct: gene WAXY; without predicted chloroplast transit peptide, N-terminal His-tag, codon-optimised, E. coli
T4 sequence (P09842 71-603): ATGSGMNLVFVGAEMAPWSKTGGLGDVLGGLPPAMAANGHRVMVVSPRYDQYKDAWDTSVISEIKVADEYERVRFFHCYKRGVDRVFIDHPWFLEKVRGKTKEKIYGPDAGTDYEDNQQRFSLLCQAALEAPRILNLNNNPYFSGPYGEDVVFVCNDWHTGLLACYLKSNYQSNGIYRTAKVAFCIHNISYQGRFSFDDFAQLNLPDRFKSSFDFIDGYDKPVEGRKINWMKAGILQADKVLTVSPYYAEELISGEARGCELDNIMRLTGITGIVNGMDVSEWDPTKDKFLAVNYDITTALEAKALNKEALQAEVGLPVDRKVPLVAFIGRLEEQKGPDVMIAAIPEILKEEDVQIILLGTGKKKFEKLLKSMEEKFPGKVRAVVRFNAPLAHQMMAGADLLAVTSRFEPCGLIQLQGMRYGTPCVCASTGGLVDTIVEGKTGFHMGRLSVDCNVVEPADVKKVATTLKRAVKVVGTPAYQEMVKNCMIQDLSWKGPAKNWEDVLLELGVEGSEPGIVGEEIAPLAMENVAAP

[1] = substrate: Nc1ncnc2c1ncn2[C@@H]1O[C@H](COP(=O)(O)OP(=O)(O)O[C@H]2O[C@H](CO)[C@@H](O)[C@H](O)[C@H]2O)[C@@H](O)[C@H]1O; experiment: coupled spectrophotometric assay (pyruvate kinase / lactate dehydrogenase, NADH); type: biochemical, Hordeum vulgare; details: 10 mM maltotriose acceptor, 50 mM Bicine pH 8.5, 25 mM KOAc, 2 mM MgCl2, 37°C
Description: coupled spectrophotometric assay (pyruvate kinase / lactate dehydrogenase, NADH) on […]

[2] = substrate: Nc1ncnc2c1ncn2[C@@H]1O[C@H](COP(=O)(O)OP(=O)(O)O[C@H]2O[C@H](CO)[C@@H](O)[C@H](O)[C@H]2O)[C@@H](O)[C@H]1O; experiment: as above; type: biochemical, Hordeum vulgare; details: 100 mM maltose (DP = 2) acceptor, 50 mM Bicine pH 8.5, 25 mM KOAc, 2 mM MgCl2, 37°C
Description: coupled spectrophotometric assay (pyruvate kinase / lactate dehydrogenase, NADH) on HvGBSSI

[3] = substrate: Nc1ncnc2c1ncn2[C@@H]1O[C@H](COP(=O)(O)OP(=O)(O)O[C@H]2O[C@H](CO)[C@@H](O)[C@H](O)[C@H]2O)[C@@H](O)[C@H]1O; experiment: as above; type: biochemical, Hordeum vulgare; details: 10 mM maltotriose acceptor, 50 mM Bicine pH 8.5, 25 mM KOAc, 2 mM MgCl2, 37°C; remark: listed apart in the source
Description: coupled spectrophotometric assay (pyruvate kinase / lactate dehydrogenase, NADH) on HvSSI

T1 sequence (G1FUP7 entry or part of it): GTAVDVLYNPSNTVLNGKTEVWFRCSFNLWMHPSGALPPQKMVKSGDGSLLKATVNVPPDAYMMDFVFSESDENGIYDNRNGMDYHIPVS

O=P(O)(O)O[C@H]1[C@H](O[C@H]2O[C@H](CO)[C@@H](O)[C@H](O)[C@H]2O)[C@@H](CO)OC(O)[C@@H]1O (stereo partly shown) [3-phosphomaltose]
glycan microarray on nitrocellulose, anti-His detection (CBM53-3): SSIIa, CBM53-3, and SSIV all showed strong binding to 3-phosphomaltose
glycan microarray on nitrocellulose, anti-His detection (HvSSIV): SSIIa, CBM53-3, and SSIV all showed strong binding to 3-phosphomaltose
glycan microarray on nitrocellulose, anti-His detection (HvSSIIa): SSIIa, CBM53-3, and SSIV all showed strong binding to 3-phosphomaltose
glycan microarray on nitrocellulose, anti-His detection (HvGBSSI): while GBSSI showed weaker binding and binding was non-detectable for SSI

B1: HvSSIV (Hordeum vulgare subsp. vulgare) (protein)
chain: QQRPQRSTAGADHLNTAANVRSDEAAVSAEKERQRKYSDGDGISNLQLEDLVEMIQNTEKNILLLNQARLQAMERADKILKEKEALQRKISILETRLSETDAQHKLSSEGNFSESPLALEFDVLKEENILLKEDIEFFKSKLIEVAKTEEGIFKLEKERALLDASLRELESRFIAAQADMMKLGPRDAWWEKVEKLEDLLETTANQVERAAVILDNNHDLQDKLDKLVASLQAANISKFSSSLVDLLQQKVKLVEERFQACNREMHSQIKLYEHSIVEFHDTLSKLIEESEKRSLENFTGNMPSELWSKISLLIDGWLLEKKISYNDASLLREMVRKRDSRLREAYLSYRGTENREVMDNFLKMALPGTSSGLHIAHIAAEMAPVAKVGGLADVISGLGKALQKKGHLVEIILPKYDCMQVDQVSNLKVLDVPVQSYFEGNMFDNKIWTGTVEGLPVYFIEPQHPAMFFSRAQYYGEHDDFKRFTYFSRAALELLYQSGKKVDIIHCHDWQTAFVAPLYWDVYANLGFNSARICFTCHNFEYQGTAPARDLAWCGLDVEHLDRPDRMRDNSHGRINAVKGAVVYSNIVTTVSPTYALEVLSQGGRGLQDTLKVHSRKFLGILNGIDTDTWNPSTDRYLKVQYNAKDLQGKAANKAALREQLNLASAYPSQPLVGCITRLVAQKGVHLIRHAIYKTAELGGQFVLLGSSPVPEIQREFEGIADHFQDNNNIRLILKYDDALSHCIYAASDMFIVPSIFEPCGLTQMIAMRYGSVPIVRKTGGLNDSVFDFDDETIPVEVRNGFTFVKADEQGLSSAMERAFNCYTRKPEVWKQLVQKDMTIDFSWDTSASQYEDIYQKAVARARAAA
notes: without predicted chloroplast transit peptide, C-terminal His-tag, codon-optimised, E. coli
Km [1]: 0.31 ± 0.02 mM

B2: HvGBSSI (Hordeum vulgare) (protein)
chain: ATGSGMNLVFVGAEMAPWSKTGGLGDVLGGLPPAMAANGHRVMVVSPRYDQYKDAWDTSVISEIKVADEYERVRFFHCYKRGVDRVFIDHPWFLEKVRGKTKEKIYGPDAGTDYEDNQQRFSLLCQAALEAPRILNLNNNPYFSGPYGEDVVFVCNDWHTGLLACYLKSNYQSNGIYRTAKVAFCIHNISYQGRFSFDDFAQLNLPDRFKSSFDFIDGYDKPVEGRKINWMKAGILQADKVLTVSPYYAEELISGEARGCELDNIMRLTGITGIVNGMDVSEWDPTKDKFLAVNYDITTALEAKALNKEALQAEVGLPVDRKVPLVAFIGRLEEQKGPDVMIAAIPEILKEEDVQIILLGTGKKKFEKLLKSMEEKFPGKVRAVVRFNAPLAHQMMAGADLLAVTSRFEPCGLIQLQGMRYGTPCVCASTGGLVDTIVEGKTGFHMGRLSVDCNVVEPADVKKVATTLKRAVKVVGTPAYQEMVKNCMIQDLSWKGPAKNWEDVLLELGVEGSEPGIVGEEIAPLAMENVAAP
notes: without predicted chloroplast transit peptide, N-terminal His-tag, codon-optimised, E. coli
Km [2]: 0.09 ± 0.02 mM

B3: HvSSI (Hordeum vulgare) (protein)
chain: ARLRRVARGRYVAELSREGPAARPAQQLAPPVVPGFLAPPPPAPAQSPAPTQPPLPDAGVGELAPDLLLEGIAEDSIDTIVVAASEQDSEIMDANDQPLAKVTRSIVFVTGEAAPYAKSGGLGDVCGSLPIALAARGHRVMVVMPRYLNGTSDKNYAKALYTGKHIKIPCFGGSHEVTFFHEYRDNVDWVFVDHPSYHRPGSLYGDNFGAFGDNQFRYTLLCYAACEAPLILELGGYIYGQSCMFVVNDWHASLVPVLLAAKYRPYGVYRDSRSTLVIHNLAHQGVEPASTYPDLGLPPEWYGALEWVFPEWARRHALDKGEAVNFLKGAVVTADRIVTVSQGYSWEVTTAEGGQGLNELLSSRKSVLNGIVNGIDINDWNPTTDKCLPHHYSVDDLSGKAKCKAELQRELGLPVREDVPLIGFIGRLDYQKGIDLIKMAIPDLMREDVQFVMLGSGDPVFEGWMRSTESSYKDKFRGWVGFSVPVSHRITAGCDILLMPSRFEPCGLNQLYAMQYGTVPVVHGTGGLRDTVETFNPFGAKGEEGTGWAFSPLTVEKMLWALRTAISTFREHKPSWEGLMKRGMTKDHTWDHAAEQYEQIFEWAFVDQPYVM
notes: as for B2
Km [3]: 0.63 ± 0.02 mM
